Measured values published in patent publication US11554171B2, “Compounds and methods for the targeted degradation of bromodomain-containing proteins” (Arvinas Operations, Inc., priority 2015, dated 2023).

Tested on: c-myc in 22RV-1 cells
Assay: Human c-myc ELISA assay
Assay type: cell-based
Details: Homo sapiens; for Emax: 22Rv1, 18 h, read-out: Degradation of BRD4: Maximum inhibition (%) c-Myc ELISA in 22RV1 cells; for DC50: 22Rv1, read-out: Degradation of BRD4: DC50 (uM) c-Myc ELISA in 22RV1 cells
Procedure: 22RV-1 cells are seeded at 30,000 cells/well at a volume of 75 μL/well in RPMI+10% FBS media in 96-well plates and grown overnight at 37 C. Cells are dosed with compounds at 4× concentration diluted in 0.4% DMSO; compounds are serially diluted 1:3 for 8-point dose curve. 25 ul of compounds is added to cells for a final concentration starting at 300 nM-0.3 nM or 1 uM-1 nM in 0.1% DMSO and incubated for 18 hrs. Media is aspirated, cells washed 1× with PBS and aspirated. Cells are lysed in 50 ul RIPA buffer (50 mM Tris pH8, 150 mM NaCl, 1% Tx-100, 0.1% SDS, 0.5% sodium deoxycholate) supplemented with protease and phosphatase inhibitors. Plates are incubated on ice for 15 minutes then centrifuged at 4 C for 10 min at 4000 rpm. Add 50 ul of cleared lysate from 96-well assay plate into 96-well c-myc ELISA plate (Novex, Life Technologies Catalog #KH02041). Reconstitute c-myc standard with standard diluent buffer; standard curve range is 333 pg/ml-0 pg/ml, diluted 1:2 for 8-point dose curve. The rest of the assay was performed following the protocol from the c-myc ELISA kit. Data is analyzed and plotted using GraphPad Prism software. Compounds described in this application were assayed and c-myc suppression potency is listed in the following Table (A: DC50<10 nM; B: DC50 10-100 nM; C: DC50: 100-1000 nM; D: DC50>1000 nM)

SMILES | DC50 [µM] | Emax [%]
Cc1ncsc1-c1ccc(CNC(=O)[C@@H]2C[C@@H](O)CN2C(=O)[C@@H](NC(=O)COCCCOCCCOc2ccc(NC(=O)C[C@@H]3N=C(c4ccc(Cl)cc4)c4c(sc(C)c4C)-n4c(C(C)C)nnc43)cc2)C(C)(C)C)cc1 [Example 54] | > 1 | 63
Cc1ncsc1-c1ccc(CNC(=O)[C@@H]2C[C@@H](O)CN2C(=O)[C@@H](NC(=O)COCCOCCOCCNC(=O)CC2N=C(c3ccc(Cl)cc3)c3c(sc(C)c3C)-n3c(C)nnc32)C(C)(C)C)cc1 (some centres unmarked) [Example 98] | 0.01 to 0.1 | 100
Cc1ncsc1-c1ccc(CNC(=O)[C@@H]2C[C@@H](O)CN2C(=O)[C@@H](NC(=O)COCCOCCOCCCCOCCOCCNC(=O)C[C@@H]2N=C(c3ccc(Cl)cc3)c3c(sc(C)c3C)-n3c(C)nnc32)C(C)(C)C)cc1 [Example 9] | 0.1 to 1 | 96.4
Cc1ncsc1-c1ccc([C@H](C)NC(=O)[C@@H]2C[C@@H](O)CN2C(=O)[C@H](C(C)C)n2cc(-c3cc(F)cc(OCCNC(=O)C[C@@H]4N=C(c5ccc(Cl)cc5)c5c(sc(C)c5C)-n5c(C)nnc54)c3)cn2)cc1 [Example 224] | < 0.01 | 100
Cc1ncsc1-c1ccc(CNC(=O)[C@@H]2C[C@@H](O)CN2C(=O)[C@@H](NC(=O)COCCOCCOCCNC(=O)C[C@H]2N=C(c3ccc(Cl)cc3)c3c(sc(C)c3C)-n3c(C)nnc32)C(C)(C)C)cc1 [Example 104] | > 1 | < 5
Cc1ncsc1-c1ccc([C@H](C)NC(=O)[C@@H]2C[C@@H](O)CN2C(=O)[C@@H](C(C)C)n2cc(-c3cnc(O[C@H]4C[C@H](NC(=O)C[C@@H]5N=C(c6ccc(Cl)cc6)c6c(sc(C)c6C)-n6c(C)nnc65)C4)cn3)cn2)cc1 [Example 283] | 0.01 to 0.1 | 89.5
Cc1ncsc1-c1ccc(CNC(=O)[C@@H]2C[C@@H](O)CN2C(=O)[C@@H](C(C)C)n2cc(-c3ccnc(O[C@@H](C)CNC(=O)C[C@@H]4N=C(c5ccc(Cl)cc5)c5c(sc(C)c5C)-n5c(C)nnc54)c3)cn2)cc1 [Example 179] | > 1 | 13.9
C=Cc1ccc(C2=N[C@@H](CC(=O)Nc3ccc(OCCCOCCCOCC(=O)N[C@H](C(=O)N4C[C@H](O)C[C@H]4C(=O)NCc4ccc(-c5scnc5C)cc4)C(C)(C)C)cc3)c3nnc(C)n3-c3sc(C)c(C)c32)cc1 [Example 63] | 0.01 to 0.1 | 98.5
CNC[C@H](NC(=O)[C@@H]1C[C@@H](O)CN1C(=O)[C@@H](NC(=O)COCCCOCCNC(=O)C[C@@H]1N=C(c2ccc(Cl)cc2)c2c(sc(C)c2C)-n2c(C)nnc21)C(C)(C)C)c1ccc(-c2scnc2C)cc1 [Example 110] | > 1 | 7.14
Cc1ncsc1-c1ccc(CNC(=O)[C@@H]2C[C@@H](O)CN2C(=O)[C@@H](NC(=O)COCCCOCCCOc2ccc(NC(=O)C[C@@H]3N=C(c4ccc(Br)cc4)c4c(sc(C)c4C)-n4c(C)nnc43)cc2)C(C)(C)C)cc1 [Example 62] | 0.01 to 0.1 | 98.5
Cc1ncsc1-c1ccc([C@H](C)NC(=O)[C@@H]2C[C@@H](O)CN2C(=O)[C@@H](NC(=O)[C@H](C)OCCCOCCNC(=O)C[C@@H]2N=C(c3ccc(Cl)cc3)c3c(sc(C)c3C)-n3c(C)nnc32)C(C)(C)C)cc1 [Example 153] | < 0.01 | 92
Cc1sc2c(c1C)C(c1ccc(Cl)cc1)=N[C@@H](CC(=O)N[C@H]1C[C@@H](Oc3ccc4oc(C(=O)N[C@H](C(=O)N5C[C@H](O)C[C@H]5C(=O)N[C@@H](C)c5ccc(-c6scnc6CO)cc5)C(C)(C)C)cc4c3)C1)c1nnc(C)n1-2 [Example 342, (2S,4R)-1-[(2S)-3,3-dimethyl-2-({5-[(1,3-cis)-3-{2-[(9S)-7-(4-chlorophenyl)-4,5,13-trimethyl-3-thia-1,8,11,12-tetraazatricyclo[8.3.0.0^2,^6]trideca-2(6),4,7,10,12-pentaen-9-yl]acetamido}cyclobutoxy]-1-benzofuran-2-yl}formamido)butanoyl]-4-hydroxy-N-[(1S)-1-{4-[4-(hydroxymethyl)-1,3-thiazol-5-yl]phenyl}ethyl]pyrrolidine-2-carboxamide] | < 0.01 | 100
Cc1ncsc1-c1ccc(CNC(=O)[C@@H]2C[C@@H](O)CN2C(=O)[C@@H](NC(=O)COCCC(=O)N2CC[C@H](NC(=O)C[C@@H]3N=C(c4ccc(Cl)cc4)c4c(sc(C)c4C)-n4c(C)nnc43)C2)C(C)(C)C)cc1 [Example 88] | 0.1 to 1 | 85.9

The next lines start with results.

DC50 [µM] | SMILES | Emax [%]
0.1 to 1 | Cc1ncsc1-c1ccc(CNC(=O)[C@@H]2C[C@@H](O)CN2C(=O)[C@@H](NC(=O)COCCO[C@H]2C[C@H](NC(=O)C[C@@H]3N=C(c4ccc(Cl)cc4)c4c(sc(C)c4C)-n4c(C)nnc43)C2)C(C)(C)C)cc1 [Example 137] | 86.9
0.01 to 0.1 | Cc1ncsc1-c1ccc(CNC(=O)[C@@H]2C[C@@H](O)CN2C(=O)[C@@H](NC(=O)COCCOCCCOc2ccc([C@@H](C)NC(=O)C[C@@H]3N=C(c4ccc(Cl)cc4)c4c(sc(C)c4C)-n4c(C)nnc43)cc2)C(C)(C)C)cc1 [Example 29] | 96.8
< 0.01 | Cc1ncsc1-c1ccc(CNC(=O)[C@@H]2C[C@@H](O)CN2C(=O)[C@@H](NC(=O)COCCCOCCCCCOc2ccc3c(c2)c2c(C(N)=O)cc(-c4c(C)noc4C)cc2n3Cc2ccccc2)C(C)(C)C)cc1 [Example 143, 9-benzyl-2-(dimethyl-1,2-oxazol-4-yl)-6-({5-[3-({[(2S)-1-[(2S,4R)-4-hydroxy-2-({[4-(4-methyl-1,3-thiazol-5-yl)phenyl]methyl}carbamoyl)pyrrolidin-1-yl]-3,3-dimethyl-1-oxobutan-2-yl]carbamoyl}methoxy)propoxy]pentyl}oxy)-9H-carbazole-4-carboxamide] | 100
0.01 to 0.1 | Cc1ncsc1-c1ccc(CNC(=O)[C@@H]2C[C@@H](O)CN2C(=O)[C@@H](NC(=O)COCCCOc2ccc(-c3cnc(NC(=O)C[C@@H]4N=C(c5ccc(Cl)cc5)c5c(sc(C)c5C)-n5c(C)nnc54)cn3)cc2F)C(C)(C)C)cc1 [Example 22] | 94
< 0.01 | Cc1ncsc1-c1ccc([C@H](C)NC(=O)[C@@H]2C[C@@H](O)CN2C(=O)[C@@H](NC(=O)CCc2ccnc(O[C@H]3C[C@@H](NC(=O)C[C@@H]4N=C(c5ccc(Cl)cc5)c5c(sc(C)c5C)-n5c(C)nnc54)C3)c2)C(C)(C)C)cc1 [Example 191] | 95
< 0.01 | Cc1ncsc1-c1ccc([C@H](C)NC(=O)[C@@H]2C[C@@H](O)CN2C(=O)[C@@H](NC(=O)CCc2cc(F)cc(OC(C)CNC(=O)C[C@@H]3N=C(c4ccc(Cl)cc4)c4c(sc(C)c4C)-n4c(C)nnc43)c2)C(C)(C)C)cc1 (some centres unmarked) [Example 156] | 96.5
< 0.01 | Cc1ncsc1-c1ccc([C@H](C)NC(=O)[C@@H]2C[C@@H](O)CN2C(=O)[C@@H](NC(=O)COc2ccc(O[C@@H](C)CNC(=O)C[C@@H]3N=C(c4ccc(Cl)cc4)c4c(sc(C)c4C)-n4c(C)nnc43)cc2)C(C)(C)C)cc1 [Example 135, (2S,4R)-1-[(2S)-2-{2-[(6-{[(2S)-1-{2-[(9S)-7-(4-chlorophenyl)-4,5,13-trimethyl-3-thia-1,8,11,12-tetraazatricyclo[8.3.0.0^2,^6]trideca-2(6),4,7,10,12-pentaen-9-yl]acetamido}propan-2-yl]oxy}pyridin-3-yl)oxy]acetamido}-3,3-dimethylbutanoyl]-4-hydroxy-N-[(1S)-1-[4-(4-methyl-1,3-thiazol-5-yl)phenyl]ethyl]pyrrolidine-2-carboxamide] | 99
< 0.01 | Cc1ncsc1-c1ccc([C@H](C)NC(=O)[C@@H]2C[C@@H](O)CN2C(=O)[C@@H](NC(=O)COc2cc(F)cc(O[C@H]3C[C@@H](NC(=O)C[C@@H]4N=C(c5ccc(Cl)cc5)c5c(sc(C)c5C)-n5c(C)nnc54)C3)c2)C(C)(C)C)cc1 [Example 209] | 90
0.01 to 0.1 | Cc1ncsc1-c1ccc([C@H](C)NC(=O)[C@@H]2C[C@@H](O)CN2C(=O)[C@@H](NC(=O)CN2C[C@@H](C)N(C3CC4(C3)CN(C(=O)C[C@@H]3N=C(c5ccc(Cl)cc5)c5c(sc(C)c5C)-n5c(C)nnc53)C4)C[C@@H]2C)C(C)(C)C)cc1 [Example 357, (2S,4R)-1-[(2S)-2-{2-[(2S,5R)-4-(2-{2-[(9S)-7-(4-chlorophenyl)-4,5,13-trimethyl-3-thia-1,8,11,12-tetraazatricyclo[8.3.0.0^2,^6]trideca-2(6),4,7,10,12-pentaen-9-yl]acetyl}-2-azaspiro[3.3]heptan-6-yl)-2,5-dimethylpiperazin-1-yl]acetamido}-3,3-dimethylbutanoyl}-4-hydroxy-N-[(1S)-1-[4-(4-methyl-1,3-thiazol-5-yl)phenyl]ethyl]pyrrolidine-2-carboxamide] | 100
